Assay results from patent publication US5750389A, “Purified saccharose-synthase, process for its production and its use” (Forschungszentrum Julich GmbH, priority 1992, dated 1998).

Legend:
[1] = test system: purified sucrose-synthase from rice; experiment: Substrate spectrum for the synthesis of disaccharides: variation of the acceptor, reacted with UDP-glucose; format: biochemical; settings: for Relative Activity %: acceptor substrates reacted with UDP-glucose, D-fructose = 100
Protocol: 12. Substrate Spectrum of the Saccharose-synthase from rice for the synthesis of Disaccharides.
B: Variation of the Acceptor.
For the synthesis reaction, the acceptor was varied. Apart from the natural acceptor, other diastereomers of D-fructose, like D-psicose, D-tagatose, D-sorbose were introduced. Further, several keytoses were systematically tested. Apart from Aldoses, nonsugar acceptors were also tested.

[2] = test system: purified sucrose-synthase from rice; experiment: Substrate spectrum of the sucrose-synthase for the splitting reaction (saccharide + UDP); format: biochemical; settings: for replacement of saccharose in the splitting reaction (in words): Table 3; for Relative Activity %: substrate splitting with UDP, 2 mM UDP, saccharide 75 to 500 mM, 3 h at 30° C., pH 7.2, Saccharose = 100
Protocol: 11. Substrate Spectrum of the Sucrose-Synthase for the splitting reaction (I)
For the splitting reaction of the sucrose-synthase, sucrose was replaced by other disaccharide or trisaccharide:
α-Glc 1-2 β-Fruc+UDP (TDP) UDP-Glc (TDP-Glc)
The concentration of the saccharide amounted to 75 to 500 mM in the reaction composition. 2 mM UDP or TDP and as a rule 10 to 80 mU enzyme were introduced. After 3 h at 30° C. and pH 7.2 (200 mM Hepes-NaOH), the reaction was stopped at 95° C. 5 min. The formation of nucleotide sugars was followed with HPLC and compared with a control (without enzyme).

[3] = test system: saccharose synthase; experiment: Dependence on divalent metal ions; format: biochemical, rice; settings: 1 mM of metal ions
From the text: 9. Dependence on Divalent Metal Ions

[4] = test system: purified Sucrose-synthase; experiment: Substrate spectrum of the nucleosidediphosphate; format: biochemical, rice; settings: pH 7.2, 30° C., FIG. 2
Protocol: 1. Substrate spectrum of the nucleosidediphosphate.
UDP, TDP, CDP, ADP and GDP were investigated. The reaction compositions contained:
100 μl Nucleosidediphosphate (15-90 mM)
100 μl purified Sucrose-synthase (21.1 mU/ml)
The reaction composition was incubated at 30° C. and stopped at different times (5 min. at 95° C.). After filtration of the sample through a 0.22 μm filter, the resulting nucleotide sugar was analyzed by means of ionpair HPLC.

[5] = test system: rice enzyme (sucrose-synthase); experiment: Kinetics (Vmax, Km) of the splitting reaction; format: biochemical; settings: sucrose 500 mM; for Km: UDP or TDP varied 0 to 10 mM, 1 h at 30° C., pH 6.5
Protocol: […] All reaction mixtures were incubated for 1 h at 30° C. and pH 6.5 (Hepes-NaOH 200 mM). The samples were treated as described above and analyzed with HPLC. […] The substrate excess inhibition can be countered by higher enzyme quantities.

[6] = test system: purified saccharose synthase from rice; experiment: Substrate spectrum for the synthesis of disaccharides: variation of the nucleotide sugar, fructose as acceptor; format: biochemical; settings: for reaction of UDP-sugar with the rice enzyme (in words): Table 4; for Relative Activity %: UDP-sugars with fructose as acceptor, 2 hours at 30° C., pH 7.5, UDP-glucose = 100
Protocol: A: Variation of the Nucleotide Sugar.
For the synthesis reaction the nucleotide sugars were varied:
The composition contained:
The composition was incubated for 2 hours at 30° C. and stopped for 5 minutes at 95° C. With HPLC, with comparison with a control (without enzyme) the development of UDP was followed.

For `CN1[C@@H]2CC[C@H]1C[C@@H](O)C2` [Tropin], the “Relative Activity %” value [1] was 10.3%.

In the case of `OC[C@H]1O[C@@](CO)(O[C@H]2O[C@H](CO)[C@@H](O)[C@H](O)[C@H]2O)[C@@H](O[C@H]2O[C@H](CO)[C@@H](O)[C@H](O)[C@H]2O)[C@@H]1O` [Melizitose], the “Relative Activity %” value [1] is reported as 0.6%, the “replacement of saccharose in the splitting reaction (in words)” value (“replacement of saccharose” for short) [2] is reported as “can replace the saccharose” and the “Relative Activity %” value [2] is reported as 0.4%.

`OC[C@H]1O[C@@H](O[C@@H]2[C@@H](CO)OC(O)(CO)[C@H]2O)[C@H](O)[C@@H](O)[C@H]1O` (mixture of isomers) [Lactulose] was tested, and the “acceptor of sucrose-synthase (in words)” value [1] was “can also serve as acceptors” and the “Relative Activity %” value [1] was 12.3%.

With `O=C(CO)[C@@H](O)[C@H](O)[C@H](O)CO` [D-fructose] the “Relative Activity %” value [1] was 100%.

`OC[C@H]1O[C@H](OC[C@H]2O[C@H](O[C@]3(CO)O[C@H](CO)[C@@H](O)[C@@H]3O)[C@H](O)[C@@H](O)[C@@H]2O)[C@H](O)[C@@H](O)[C@H]1O` [Raffinose] was tested, and the “acceptor of sucrose-synthase (in words)” value [1] was “can also serve as acceptors”, the “Relative Activity %” value [1] was 8.4% and the “replacement of saccharose” value [2] was “can replace the saccharose”. The “Relative Activity %” value [2] was 3.8%.

For `CC1(C)S[C@@H]2[C@H](NC(=O)[C@H](N)c3ccccc3)C(=O)N2[C@H]1C(=O)O` [Ampicillin, reference compound], the “Relative Activity %” value [2] was 2.4%.

In the case of `[Cu+2]` [Cu^2+], the “influence of metal ions on the enzyme activity” value [3] is reported as “completely inactivated”.

For `CN1CCC(O)C1` (centres unmarked) [3-hydroxy-N-methyl-pyrrolidine], the “Relative Activity %” value [1] was 1.9%.

In the case of `C[C@H](O)[C@@H](O)[C@H](O)C(=O)CO` [6-desoxy-L-sorbase], the “Relative Activity %” value [1] is reported as 8.8%.

`O[C@@H]1[C@@H](O)[C@@H]2OC[C@@H](O2)[C@H]1O` [1,6-Anhydroglucose] was tested, and the “acceptor of sucrose-synthase (in words)” value [1] was “acceptors” and the “Relative Activity %” value [1] was 9.1%.

For `O=C[C@H](O)[C@@H](O)[C@@H](O)CO` [L-arabinose], the “acceptor of sucrose-synthase (in words)” value [1] was “acceptors” and the “Relative Activity %” value [1] was 3.2%.

With `OC[C@H]1O[C@H](OC[C@H]2OC(O)(CO)[C@@H](O)[C@@H]2O)[C@H](O)[C@@H](O)[C@@H]1O` (some centres unmarked) [Isomaltulose] the “Relative Activity %” value [1] was 3.1%, the “replacement of saccharose” value [2] was “can replace the saccharose” and the “Relative Activity %” value [2] was 1.0%.

For `[Mg+2]` [Mg^2+], the “influence of metal ions on the enzyme activity” value [3] was “influenced only slightly”.

With `O=C(CO)[C@@H](O)[C@H](O)[C@@H](O)CO` [L-sorbose] the “acceptor of sucrose-synthase (in words)” value [1] was “acceptors” and the “Relative Activity %” value [1] was 6.0%.

With `Cc1cn([C@H]2C[C@H](O)[C@@H](COP(=O)(O)OP(=O)(O)O)O2)c(=O)[nH]c1=O` [TDP] the “acceptance of the nucleosidediphosphate (rate of NDP-glucose formation)” value (“acceptance of the nucleosidediphosphate” below) [4] was “accepted in the sequence UDP, TDP, ADP, CDP and GDP” and the Km [5] was 650 µM.

For `O=C(CO)[C@@H](O)[C@H](O)CO` [D-xylulose], the “acceptor of sucrose-synthase (in words)” value [1] was “acceptors” and the “Relative Activity %” value [1] was 40.7%.

For `O=C(CO)[C@@H](O[C@H]1O[C@H](CO)[C@@H](O)[C@H](O)[C@H]1O)[C@H](O)[C@H](O)CO` [Turanose], the “Relative Activity %” value [1] was 0.5%.

In the case of `OC1CCNC1` (centres unmarked) [3-hydroxypyrrolidine], the “Relative Activity %” value [1] is reported as 6.3%.

`OCC(O)CN1CCCC1` (centres unmarked) [3-pyrrolidino-1,2-propandiol] was tested, and the “Relative Activity %” value [1] was 9.6%.

With `CC(=O)[C@@H](O)[C@H](O)C(=O)CO` [5-keto-6-deoxy-D-fructose] the “Relative Activity %” value [1] was 25.1%.

`OC[C@@]12OC[C@@H](O1)[C@@H](O)[C@@H](O)[C@@H]2O` [Sedoheptulose Anhydride] was tested, and the “Relative Activity %” value [1] was 1.1%.

For `CC(=O)N[C@H]1[C@@H](OP(=O)(O)OP(=O)(O)OC[C@H]2O[C@@H](n3ccc(=O)[nH]c3=O)[C@H](O)[C@@H]2O)O[C@H](CO)[C@@H](O)[C@@H]1O` [UDP-N-acetylglucosamine], the “reaction of UDP-sugar with the rice enzyme (in words)” value [6] was “can be reacted with the rice enzyme” and the “Relative Activity %” value [6] was 1.8%.

In the case of `CCN1CCC(O)C1` (centres unmarked) [1-ethyl-3-hydroxy-pyrrolidine], the “Relative Activity %” value [1] is reported as 10.4%.

In the case of `OC[C@H]1O[C@@](CO)(O[C@@H]2C[C@@H](O)[C@H](O)[C@@H](CO)O2)[C@@H](O)[C@@H]1O` [2-deoxy-saccharose], the “Relative Activity %” value [2] is reported as 55%.

For `[Fe+2]` [Fe^2+], the “influence of metal ions on the enzyme activity” value [3] was “completely inactivated”.

For `Nc1nc2c(ncn2[C@@H]2O[C@H](COP(=O)(O)OP(=O)(O)O)[C@@H](O)[C@H]2O)c(=O)[nH]1` [GDP], the “acceptance of the nucleosidediphosphate” value [4] was “accepted in the sequence UDP, TDP, ADP, CDP and GDP”.

For `OC[C@H]1O[C@@](CO)(O[C@H]2O[C@H](CO)[C@@H](O)[C@H](O)[C@H]2O)[C@@H](O)[C@@H]1O` [Saccharose], the “Relative Activity %” value [2] was 100%.

With `[Ca+2]` [Ca^2+] the “influence of metal ions on the enzyme activity, TDP as the substrate” value [3] was “stimulation of the enzyme activity”.

`O=c1ccn([C@@H]2O[C@H](COP(=O)(O)OP(=O)(O)O)[C@@H](O)[C@H]2O)c(=O)[nH]1` [UDP] was tested, and the “acceptance of the nucleosidediphosphate” value [4] was “accepted in the sequence UDP, TDP, ADP, CDP and GDP”, the Km [5] was 400 µM and the Ki ([5]; with 0.9 mU enzyme, pH 6.5, 30° C., read-out: substrate excess inhibition Ki(S)) was 16 mM.

For `CCCCCCCCO[C@@H]1O[C@H](CO)[C@@H](O)[C@H](O)[C@H]1O` [Octyl-β-D-glucopyranoside], the “acceptor of sucrose-synthase (in words)” value [1] was “acceptors” and the “Relative Activity %” value [1] was 0.5%.

For `OCCN1CCCCC1`, the “Relative Activity %” value [1] was 9.4%.

For `Nc1ncnc2c1ncn2[C@@H]1O[C@H](COP(=O)(O)OP(=O)(O)O)[C@@H](O)[C@H]1O` [ADP], the “acceptance of the nucleosidediphosphate” value [4] was “accepted in the sequence UDP, TDP, ADP, CDP and GDP”.

With `O=C[C@@H](O)[C@@H](O)[C@H](O)CO` [D-lyxose] the “acceptor of sucrose-synthase (in words)” value [1] was “acceptors” and the “Relative Activity %” value [1] was 14.7%.

In the case of `CC[C@@H](O)[C@H](O)C(=O)CO` [5,6-dideoxy-D-fructose], the “Relative Activity %” value [1] is reported as 7.6%.

`Nc1ccn([C@@H]2O[C@H](COP(=O)(O)OP(=O)(O)O)[C@@H](O)[C@H]2O)c(=O)n1` [CDP] was tested, and the “acceptance of the nucleosidediphosphate” value [4] was “accepted in the sequence UDP, TDP, ADP, CDP and GDP”.

With `[Mn+2]` [Mn^2+] the “influence of metal ions on the enzyme activity” value [3] was “influenced only slightly” and the “influence of metal ions on the enzyme activity, TDP as the substrate” value [3] was “stimulation of the enzyme activity”.

In the case of `O=C(CO)[C@@H](O)[C@@H](O)[C@H](O)CO` [D-tagatose], the “Relative Activity %” value [1] is reported as 28.3%.

For `O=C(CO)[C@H](O)[C@H](O)[C@H](O)CO` [D-psicose], the “Relative Activity %” value [1] was 14.1%.

`O=C[C@@H](O)[C@@H](O)[C@H](O)[C@H](O)CO` [D-mannose] was tested, and the “acceptor of sucrose-synthase (in words)” value [1] was “acceptors” and the “Relative Activity %” value [1] was 3.9%.

With `O=c1ccn([C@@H]2O[C@H](COP(=O)(O)OP(=O)(O)O[C@H]3OC[C@@H](O)[C@H](O)[C@H]3O)[C@@H](O)[C@H]2O)c(=O)[nH]1` [UDP-xylose] the “reaction of UDP-sugar with the rice enzyme (in words)” value [6] was “can be reacted with the rice enzyme” and the “Relative Activity %” value [6] was 1.7%.

With `CC(C)[C@@H](O)[C@H](O)C(=O)CO` [5,6-dideoxy-5-methyl-D-fructose] the “Relative Activity %” value [1] was 19.0%.
